The results in this text go back to US20100105636A1, “T-TYPE CALCIUM CHANNEL BLOCKER” (Nissan Chemical Industries, Ltd., priority 2003, published 2010).

Type in all cases: cell-based
The target in test [1] is T1, T-type Ca channel (α1G) (Homo sapiens, UniProt O43497).
T1 construct: expressed in transfected cells; host or cells: BHK (baby hamster kidney) cells
As to the kind of experiment: Effect on T-type Ca channel expressed in BHK cells (whole cell patch clamp), Pharmacological Test Example 1. To be noted: BHK cells expressing T-type Ca channel (α1G), depolarization pulse −20 mV from −80 mV, 5 minutes after application, average value vs vehicle control (100%), read-out: Inhibition (%) of Ca current. On the procedure:
Effect on T-Type Ca Channel Expressed in Mammalian Cells (BHK Cells)
(§1) An electrophysiological evaluation was carried out by use of BHK (baby hamster kidney) cells in which T-type Ca channel (α1G) was expressed according to the method of Wakamori M et al. (Wakamori M et al.: J Biol Chem 273, 34857-34867, 1998) based on the whole cell patch clamp method. Each Ca-ion current was measured through a patch clamp amplifier as an inward current when depolarization pulse (−20 mV) was applied to cells maintained at a membrane potential of −80 mV. Each compound was dissolved in extracellular solution and applied with perfusion. At 5 minutes after the application, any variation in Ca-ion current was measured. The results are shown in Table 1 as Ca current inhibition (%, average value) of the compound of the present invention to Ca current (100%) in vehicle control.

In test [2] the test system is L-type Ca channel. As to the kind of experiment: Effect on L-type Ca channel expressed in BHK cells (whole cell patch clamp), Pharmacological Test Example 2. Particulars: 10 μM; BHK cells expressing L-type Ca channel; depolarization pulse 10 mV from −80 mV; 5 minutes after application; average value vs vehicle control (100%). On the procedure: (§2) Effect on L-Type and T-Type Ca Channel Expressed in Mammalian Cells (BHK Cells)
as §1, with “which L-type Ca channel or” for “which”, “pulse (10 mV in L-type Ca channel, −20 mV in T-type Ca channel)” for “pulse (−20 mV)”, “mV. Compound (9)” for “mV. Each compound”, “Table 2” for “Table 1”
On the technique in general: Patch clamp records ionic current or voltage across a cell membrane.

The target in test [3] is T1, T-type Ca channel (α1G). As to the kind of experiment: Effect on T-type Ca channel expressed in BHK cells (whole cell patch clamp), Pharmacological Test Example 2. Particulars: BHK cells expressing T-type Ca channel (α1G), depolarization pulse −20 mV from −80 mV, 5 minutes after application, average value vs vehicle control (100%), read-out: Inhibition (%) of Ca current, T-type. On the procedure:
as §2
as §1, with “which L-type Ca channel or” for “which”, “pulse (10 mV in L-type Ca channel, −20 mV in T-type Ca channel)” for “pulse (−20 mV)”, “mV. Compound (9)” for “mV. Each compound”, “Table 2” for “Table 1”

T1 sequence (O43497 whole entry): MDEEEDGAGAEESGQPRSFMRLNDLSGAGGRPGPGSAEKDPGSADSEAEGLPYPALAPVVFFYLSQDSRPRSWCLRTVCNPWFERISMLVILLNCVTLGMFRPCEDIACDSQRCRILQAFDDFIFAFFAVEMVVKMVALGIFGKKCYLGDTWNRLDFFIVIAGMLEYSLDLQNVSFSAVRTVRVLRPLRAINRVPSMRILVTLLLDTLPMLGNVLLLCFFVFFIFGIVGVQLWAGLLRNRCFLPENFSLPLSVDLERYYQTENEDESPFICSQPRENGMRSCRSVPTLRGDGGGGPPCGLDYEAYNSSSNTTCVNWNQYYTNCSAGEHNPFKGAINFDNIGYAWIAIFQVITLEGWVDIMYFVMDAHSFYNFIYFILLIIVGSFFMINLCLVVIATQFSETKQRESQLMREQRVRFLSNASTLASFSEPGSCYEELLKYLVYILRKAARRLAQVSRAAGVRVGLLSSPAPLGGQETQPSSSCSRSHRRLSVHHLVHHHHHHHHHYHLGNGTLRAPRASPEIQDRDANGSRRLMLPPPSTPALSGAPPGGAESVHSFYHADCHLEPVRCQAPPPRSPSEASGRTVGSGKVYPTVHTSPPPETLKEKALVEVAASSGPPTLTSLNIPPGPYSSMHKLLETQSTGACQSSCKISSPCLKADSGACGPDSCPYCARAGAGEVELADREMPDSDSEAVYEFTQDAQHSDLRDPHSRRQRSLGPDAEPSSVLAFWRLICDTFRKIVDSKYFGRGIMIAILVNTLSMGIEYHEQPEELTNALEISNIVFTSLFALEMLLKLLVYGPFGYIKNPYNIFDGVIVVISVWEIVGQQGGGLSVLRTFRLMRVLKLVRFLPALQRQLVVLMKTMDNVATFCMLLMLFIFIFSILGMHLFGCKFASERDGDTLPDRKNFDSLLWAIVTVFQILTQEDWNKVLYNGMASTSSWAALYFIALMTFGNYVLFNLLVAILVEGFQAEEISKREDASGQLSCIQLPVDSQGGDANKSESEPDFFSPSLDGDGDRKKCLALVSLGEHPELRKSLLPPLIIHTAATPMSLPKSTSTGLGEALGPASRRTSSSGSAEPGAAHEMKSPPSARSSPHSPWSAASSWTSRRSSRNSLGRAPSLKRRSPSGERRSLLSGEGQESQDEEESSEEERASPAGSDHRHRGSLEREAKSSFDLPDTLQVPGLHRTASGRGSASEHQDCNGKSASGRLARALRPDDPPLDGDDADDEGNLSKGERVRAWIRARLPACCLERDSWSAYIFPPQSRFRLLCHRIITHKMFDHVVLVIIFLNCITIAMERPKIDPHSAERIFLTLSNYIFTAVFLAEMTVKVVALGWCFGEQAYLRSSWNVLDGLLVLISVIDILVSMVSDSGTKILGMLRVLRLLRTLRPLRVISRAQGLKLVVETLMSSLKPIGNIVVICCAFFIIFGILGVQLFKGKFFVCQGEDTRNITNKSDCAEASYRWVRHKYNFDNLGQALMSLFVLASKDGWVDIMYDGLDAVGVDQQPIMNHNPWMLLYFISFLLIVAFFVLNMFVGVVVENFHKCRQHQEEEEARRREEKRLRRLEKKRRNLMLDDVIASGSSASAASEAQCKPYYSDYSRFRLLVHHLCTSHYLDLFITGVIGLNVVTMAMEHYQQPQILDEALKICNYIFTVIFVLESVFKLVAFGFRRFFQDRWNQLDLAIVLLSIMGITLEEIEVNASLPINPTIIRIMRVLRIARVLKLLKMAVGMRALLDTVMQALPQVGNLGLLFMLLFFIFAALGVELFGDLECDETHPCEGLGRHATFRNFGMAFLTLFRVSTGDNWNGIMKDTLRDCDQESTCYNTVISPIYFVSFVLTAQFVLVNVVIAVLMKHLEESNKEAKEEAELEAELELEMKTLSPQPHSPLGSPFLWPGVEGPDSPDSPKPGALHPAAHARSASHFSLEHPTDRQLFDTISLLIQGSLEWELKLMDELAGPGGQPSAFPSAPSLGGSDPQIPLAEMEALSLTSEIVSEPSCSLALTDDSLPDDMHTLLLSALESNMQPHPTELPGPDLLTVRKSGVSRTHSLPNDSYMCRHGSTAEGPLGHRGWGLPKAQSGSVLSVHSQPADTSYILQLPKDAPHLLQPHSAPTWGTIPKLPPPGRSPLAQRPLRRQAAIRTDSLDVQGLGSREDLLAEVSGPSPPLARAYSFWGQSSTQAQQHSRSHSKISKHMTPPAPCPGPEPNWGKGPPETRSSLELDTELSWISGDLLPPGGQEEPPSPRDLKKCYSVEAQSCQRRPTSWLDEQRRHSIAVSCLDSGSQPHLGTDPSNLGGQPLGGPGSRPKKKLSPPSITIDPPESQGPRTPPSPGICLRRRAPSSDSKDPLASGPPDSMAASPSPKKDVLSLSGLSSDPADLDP

Broadly, the inhibition is the relative decrease from the control value, in per cent. Regarding `Cc1nc(C)c(P2(=O)OCC(C)(C)CO2)c(-c2cccc([N+](=O)[O-])c2)c1C(=O)OCCN1CCN(C(c2ccccc2)c2ccccc2)CC1` [Compound (6)], the inhibition at 10 µM in test [1] came to 43.6%. As to `COC(=O)C1=C(C)N(C)C(C)=C(C(=O)OC2CCCN(Cc3ccccc3)C2)C1c1cccc([N+](=O)[O-])c1` (stereo not shown) [Compound (8)], in test [1], the inhibition at 10 µM was 30%. Turning to `Cc1nc(C)c(P2(=O)OCC(C)(C)CO2)c(-c2cccc([N+](=O)[O-])c2)c1C(=O)OCCN(Cc1ccccc1)c1ccccc1` [Compound (4)], the inhibition at 10 µM in test [1] amounted to 23.9%. On the same count and under the same terms, the result for `Cc1nc(C)c(P2(=O)OCC(C)(C)CO2)c(-c2cccc([N+](=O)[O-])c2)c1C(=O)OCCNc1ccccc1` [Compound (5)] reads 53.9%; that for `COC(=O)c1c(C)nc(C)c(C(=O)OC2CCCN(Cc3ccccc3)C2)c1-c1cccc([N+](=O)[O-])c1` (stereo not shown) [Compound (7)], 45.8%. Consider `CC1=C(C(=O)OCCN(Cc2ccccc2)c2ccccc2)C(c2cccc([N+](=O)[O-])c2)C(P2(=O)OCC(C)(C)CO2)=C(C)N1CCN1CCOCC1` (stereo not shown) [Compound (9)], for which the “Inhibition (%) of Ca current, L-type” value in test [2] worked out at 9.9%. Moreover, in test [3], the inhibition at 10 µM came out at 48.9%.
